From article PMC5814754, “Quantitative, Wide-Spectrum Kinase Profiling in Live Cells for Assessing the Effect of Cellular ATP on Target Engagement” (Cell Chemical Biology, 2018)

Tests used:
Experiment in all cases: NanoBRET single-dose fractional occupancy profiling of kinase/Nluc library in live HEK293 cells (Table S1)
Assay type in all cases: binding
Design in all cases: Occupancy, % Replicate 1 / Occupancy, % Replicate 2: unit of the concentration uncertain
178 full-length kinases [1] = target: 178 full-length kinases (Homo sapiens, UniProt O75460); settings: ERN1, Nluc C, probe 5 at 1 (unit uncertain)
178 full-length kinases [2] = target: 178 full-length kinases (Homo sapiens, UniProt O94768); settings: STK17B (NP_004217), Nluc orientation C, probe 1 at 1 (unit uncertain)
178 full-length kinases [3] = target: 178 full-length kinases (Homo sapiens, UniProt P22455); settings: FGFR4, Nluc C, probe 5 at 1 (unit uncertain)
178 full-length kinases [4] = target: 178 full-length kinases (Homo sapiens, UniProt P27037); settings: ACVR2A, Nluc C, probe 2 at 1 (unit uncertain)
178 full-length kinases [5] = target: 178 full-length kinases (Homo sapiens, UniProt P30291); settings: WEE1 (NP_003381), Nluc orientation C, probe 5 at 0.05 (unit uncertain)
178 full-length kinases [6] = target: 178 full-length kinases (Homo sapiens, UniProt P42681); settings: TXK (NP_003319), Nluc orientation C, probe 6 at 0.1 (unit uncertain)
178 full-length kinases [7] = target: 178 full-length kinases (Homo sapiens, UniProt P51955); settings: NEK2, Nluc N, probe 5 at 1 (unit uncertain)
178 full-length kinases [8] = target: 178 full-length kinases (Homo sapiens, UniProt Q02779); settings: MAP3K10, Nluc N, probe 5 at 1 (unit uncertain)
178 full-length kinases [9] = target: 178 full-length kinases (Homo sapiens, UniProt Q13627); settings: DYRK1A, Nluc N, probe 5 at 1 (unit uncertain)
178 full-length kinases [10] = target: 178 full-length kinases (Homo sapiens, UniProt Q13705); settings: ACVR2B, Nluc C, probe 2 at 1 (unit uncertain)
178 full-length kinases [11] = target: 178 full-length kinases (Homo sapiens, UniProt Q13882); settings: PTK6, Nluc C, probe 6 at 0.5 (unit uncertain)
178 full-length kinases [12] = target: 178 full-length kinases (Homo sapiens, UniProt Q16539); settings: MAPK14, Nluc C, probe 6 at 0.1 (unit uncertain)
178 full-length kinases [13] = target: 178 full-length kinases (Homo sapiens, UniProt Q16832); settings: DDR2, Nluc C, probe 6 at 0.1 (unit uncertain)
178 full-length kinases [14] = target: 178 full-length kinases (Homo sapiens, UniProt Q8IVW4); settings: CDKL3, Nluc N, probe 1 at 0.05 (unit uncertain)
178 full-length kinases [15] = target: 178 full-length kinases (Homo sapiens, UniProt Q8IYT8); settings: ULK2 (NP_001136082), Nluc orientation N, probe 5 at 1 (unit uncertain)
178 full-length kinases [16] = target: 178 full-length kinases (Homo sapiens, UniProt Q8TD19); settings: NEK9, Nluc N, probe 5 at 1 (unit uncertain)
178 full-length kinases [17] = target: 178 full-length kinases (Homo sapiens, UniProt Q9NYY3); settings: PLK2, Nluc N, probe 5 at 1 (unit uncertain)
178 full-length kinases [18] = target: 178 full-length kinases (Homo sapiens, UniProt Q9Y463); settings: DYRK1B, Nluc N, probe 5 at 1 (unit uncertain)
178 full-length kinases (Homo sapiens, UniProt Q9Y463), sequence (Q9Y463 whole entry): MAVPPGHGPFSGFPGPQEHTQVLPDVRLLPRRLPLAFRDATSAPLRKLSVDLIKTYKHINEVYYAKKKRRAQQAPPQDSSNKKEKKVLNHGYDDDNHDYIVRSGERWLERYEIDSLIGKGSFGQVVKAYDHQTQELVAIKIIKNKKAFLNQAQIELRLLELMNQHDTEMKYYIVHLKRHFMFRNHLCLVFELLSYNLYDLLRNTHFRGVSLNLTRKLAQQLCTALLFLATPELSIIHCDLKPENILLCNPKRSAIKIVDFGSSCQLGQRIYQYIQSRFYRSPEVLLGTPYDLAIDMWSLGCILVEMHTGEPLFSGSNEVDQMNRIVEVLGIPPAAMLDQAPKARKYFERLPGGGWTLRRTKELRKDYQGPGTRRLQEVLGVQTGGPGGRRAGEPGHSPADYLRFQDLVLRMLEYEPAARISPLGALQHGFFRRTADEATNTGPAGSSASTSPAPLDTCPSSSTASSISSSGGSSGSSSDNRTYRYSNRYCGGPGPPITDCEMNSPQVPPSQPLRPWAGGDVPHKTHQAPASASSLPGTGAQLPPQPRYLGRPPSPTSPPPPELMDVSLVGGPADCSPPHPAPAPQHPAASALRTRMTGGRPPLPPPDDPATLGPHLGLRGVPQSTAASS

178 full-length kinases (Homo sapiens, UniProt Q8IVW4), sequence (Q8IVW4 whole entry): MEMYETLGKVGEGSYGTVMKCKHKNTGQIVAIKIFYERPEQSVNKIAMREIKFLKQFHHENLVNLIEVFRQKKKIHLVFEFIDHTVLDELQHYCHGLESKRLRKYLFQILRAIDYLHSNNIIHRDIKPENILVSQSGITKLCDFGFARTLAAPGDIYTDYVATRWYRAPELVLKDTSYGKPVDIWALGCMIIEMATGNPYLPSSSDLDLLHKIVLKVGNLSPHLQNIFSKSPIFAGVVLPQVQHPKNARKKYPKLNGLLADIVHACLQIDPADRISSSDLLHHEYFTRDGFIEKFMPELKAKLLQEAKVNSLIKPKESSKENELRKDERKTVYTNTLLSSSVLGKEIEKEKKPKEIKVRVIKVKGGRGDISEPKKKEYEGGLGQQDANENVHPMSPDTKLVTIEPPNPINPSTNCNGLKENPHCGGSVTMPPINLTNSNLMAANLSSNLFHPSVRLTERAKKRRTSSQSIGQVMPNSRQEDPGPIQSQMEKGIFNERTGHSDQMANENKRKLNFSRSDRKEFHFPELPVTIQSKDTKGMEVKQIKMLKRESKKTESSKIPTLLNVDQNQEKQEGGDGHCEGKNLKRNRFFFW
178 full-length kinases (Homo sapiens, UniProt Q16539), sequence (Q16539 whole entry): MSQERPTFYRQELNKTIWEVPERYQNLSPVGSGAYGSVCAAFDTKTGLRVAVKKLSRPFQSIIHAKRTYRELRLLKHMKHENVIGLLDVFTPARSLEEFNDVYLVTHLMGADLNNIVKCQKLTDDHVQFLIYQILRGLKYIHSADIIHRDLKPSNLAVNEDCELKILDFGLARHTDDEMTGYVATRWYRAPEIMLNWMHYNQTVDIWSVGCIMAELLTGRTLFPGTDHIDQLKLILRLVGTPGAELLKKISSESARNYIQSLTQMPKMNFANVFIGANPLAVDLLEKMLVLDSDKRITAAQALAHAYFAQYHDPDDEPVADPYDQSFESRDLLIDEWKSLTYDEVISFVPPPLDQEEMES
178 full-length kinases (Homo sapiens, UniProt Q9NYY3), sequence (Q9NYY3 whole entry): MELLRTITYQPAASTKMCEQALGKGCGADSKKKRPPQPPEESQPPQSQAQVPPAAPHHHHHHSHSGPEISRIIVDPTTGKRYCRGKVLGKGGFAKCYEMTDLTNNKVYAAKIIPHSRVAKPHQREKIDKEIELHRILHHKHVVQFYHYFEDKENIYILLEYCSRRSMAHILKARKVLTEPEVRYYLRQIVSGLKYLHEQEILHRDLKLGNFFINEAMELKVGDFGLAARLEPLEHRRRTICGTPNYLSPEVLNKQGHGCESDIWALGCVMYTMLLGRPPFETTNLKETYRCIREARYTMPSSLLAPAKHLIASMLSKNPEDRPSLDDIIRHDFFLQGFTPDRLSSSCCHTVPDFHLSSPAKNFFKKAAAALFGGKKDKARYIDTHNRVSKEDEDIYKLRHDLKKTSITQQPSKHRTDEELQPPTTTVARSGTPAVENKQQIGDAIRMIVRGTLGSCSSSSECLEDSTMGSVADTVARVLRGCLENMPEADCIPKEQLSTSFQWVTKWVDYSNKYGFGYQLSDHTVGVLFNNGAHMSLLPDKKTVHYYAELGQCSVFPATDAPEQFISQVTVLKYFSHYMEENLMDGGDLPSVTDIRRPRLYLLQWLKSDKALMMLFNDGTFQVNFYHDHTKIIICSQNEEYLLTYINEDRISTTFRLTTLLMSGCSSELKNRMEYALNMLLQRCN
178 full-length kinases (Homo sapiens, UniProt Q02779), sequence (Q02779 whole entry): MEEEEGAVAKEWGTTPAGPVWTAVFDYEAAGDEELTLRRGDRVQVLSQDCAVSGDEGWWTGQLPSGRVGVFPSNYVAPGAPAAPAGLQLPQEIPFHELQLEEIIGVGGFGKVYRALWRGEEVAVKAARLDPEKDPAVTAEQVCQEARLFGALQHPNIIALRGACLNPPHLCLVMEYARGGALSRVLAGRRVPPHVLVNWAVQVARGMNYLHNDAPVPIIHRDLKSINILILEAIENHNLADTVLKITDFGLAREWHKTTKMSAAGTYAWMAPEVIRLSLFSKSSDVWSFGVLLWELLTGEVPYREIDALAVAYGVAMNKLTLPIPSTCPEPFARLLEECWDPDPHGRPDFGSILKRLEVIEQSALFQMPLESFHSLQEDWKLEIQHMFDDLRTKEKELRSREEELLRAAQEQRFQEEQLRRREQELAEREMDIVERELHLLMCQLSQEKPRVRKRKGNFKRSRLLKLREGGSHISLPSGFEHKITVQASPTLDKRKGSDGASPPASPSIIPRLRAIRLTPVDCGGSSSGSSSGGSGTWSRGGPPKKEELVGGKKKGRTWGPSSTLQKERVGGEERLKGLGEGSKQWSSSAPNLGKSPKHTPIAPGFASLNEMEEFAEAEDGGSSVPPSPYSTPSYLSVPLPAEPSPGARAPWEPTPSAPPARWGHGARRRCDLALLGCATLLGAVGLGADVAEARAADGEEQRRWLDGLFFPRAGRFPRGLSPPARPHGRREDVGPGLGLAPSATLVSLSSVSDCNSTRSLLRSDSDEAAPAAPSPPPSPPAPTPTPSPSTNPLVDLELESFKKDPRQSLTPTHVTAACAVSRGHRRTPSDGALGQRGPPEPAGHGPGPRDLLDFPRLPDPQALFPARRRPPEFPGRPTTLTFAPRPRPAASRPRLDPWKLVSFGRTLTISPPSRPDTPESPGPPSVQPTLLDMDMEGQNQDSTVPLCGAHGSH
178 full-length kinases (Homo sapiens, UniProt P27037), sequence (P27037 20-513): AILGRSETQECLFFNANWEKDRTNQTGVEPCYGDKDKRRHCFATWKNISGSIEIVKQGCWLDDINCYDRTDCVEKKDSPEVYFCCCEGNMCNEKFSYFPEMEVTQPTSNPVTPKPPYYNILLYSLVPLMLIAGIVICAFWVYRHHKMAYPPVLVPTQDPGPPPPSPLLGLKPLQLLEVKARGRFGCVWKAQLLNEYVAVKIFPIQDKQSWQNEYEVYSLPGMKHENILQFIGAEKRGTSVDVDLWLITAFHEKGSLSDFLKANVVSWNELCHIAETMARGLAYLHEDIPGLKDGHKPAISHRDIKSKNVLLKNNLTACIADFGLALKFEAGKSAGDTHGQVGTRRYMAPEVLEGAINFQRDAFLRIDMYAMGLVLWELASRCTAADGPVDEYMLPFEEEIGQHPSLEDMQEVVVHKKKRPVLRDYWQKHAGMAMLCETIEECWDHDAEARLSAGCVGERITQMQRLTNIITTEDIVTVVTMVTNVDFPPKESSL
178 full-length kinases (Homo sapiens, UniProt O94768), sequence (O94768 whole entry): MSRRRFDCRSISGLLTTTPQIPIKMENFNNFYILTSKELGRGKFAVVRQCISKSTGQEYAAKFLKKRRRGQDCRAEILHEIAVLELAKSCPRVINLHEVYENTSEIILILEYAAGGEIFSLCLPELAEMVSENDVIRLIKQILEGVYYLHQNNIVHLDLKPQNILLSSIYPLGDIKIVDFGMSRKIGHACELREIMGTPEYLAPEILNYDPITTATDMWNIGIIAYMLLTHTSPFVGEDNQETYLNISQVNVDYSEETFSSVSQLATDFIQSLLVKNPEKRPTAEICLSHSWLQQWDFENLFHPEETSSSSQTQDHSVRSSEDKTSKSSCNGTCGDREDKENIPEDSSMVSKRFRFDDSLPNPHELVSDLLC
178 full-length kinases (Homo sapiens, UniProt P42681), sequence (P42681 whole entry): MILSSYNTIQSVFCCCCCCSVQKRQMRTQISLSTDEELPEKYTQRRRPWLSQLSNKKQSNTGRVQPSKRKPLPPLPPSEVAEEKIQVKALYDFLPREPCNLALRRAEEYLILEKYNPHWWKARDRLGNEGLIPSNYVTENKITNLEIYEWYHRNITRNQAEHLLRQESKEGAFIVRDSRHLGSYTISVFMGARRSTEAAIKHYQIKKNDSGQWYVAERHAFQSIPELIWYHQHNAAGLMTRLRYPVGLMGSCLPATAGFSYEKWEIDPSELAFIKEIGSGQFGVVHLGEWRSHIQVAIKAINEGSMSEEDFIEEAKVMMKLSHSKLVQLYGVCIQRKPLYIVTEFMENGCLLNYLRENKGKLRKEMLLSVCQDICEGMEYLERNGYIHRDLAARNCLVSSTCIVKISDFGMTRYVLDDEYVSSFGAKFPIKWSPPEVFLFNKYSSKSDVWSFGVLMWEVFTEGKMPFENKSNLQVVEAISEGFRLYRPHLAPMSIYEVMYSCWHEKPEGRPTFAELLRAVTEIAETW

C[C@@H](Oc1cc(-c2cnn(C3CCNCC3)c2)cnc1N)c1c(Cl)ccc(F)c1Cl [Crizotinib]
No Binding: Occupancy, % Replicate 1 (178 full-length kinases [1]) | Occupancy, % Replicate 2 (178 full-length kinases [1]) | Occupancy, % Replicate 1 (178 full-length kinases [2]; replicate 1) | Occupancy, % Replicate 2 (178 full-length kinases [2]; replicate 2) | Occupancy, % Replicate 1 (178 full-length kinases [3]) | Occupancy, % Replicate 1 (178 full-length kinases [4]) | Occupancy, % Replicate 2 (178 full-length kinases [4]) | Occupancy, % Replicate 1 (178 full-length kinases [5]; replicate 1) | Occupancy, % Replicate 2 (178 full-length kinases [5]; replicate 2) | Occupancy, % Replicate 1 (178 full-length kinases [6]; replicate 1) | Occupancy, % Replicate 2 (178 full-length kinases [6]; replicate 2) | Occupancy, % Replicate 1 (178 full-length kinases [7]) | Occupancy, % Replicate 1 (178 full-length kinases [8]) | Occupancy, % Replicate 2 (178 full-length kinases [8]) | Occupancy, % Replicate 1 (178 full-length kinases [9]) | Occupancy, % Replicate 2 (178 full-length kinases [9]) | Occupancy, % Replicate 1 (178 full-length kinases [10]) | Occupancy, % Replicate 2 (178 full-length kinases [11]) | Occupancy, % Replicate 1 (178 full-length kinases [12]) | Occupancy, % Replicate 2 (178 full-length kinases [12]) | Occupancy, % Replicate 1 (178 full-length kinases [13]) | Occupancy, % Replicate 1 (178 full-length kinases [14]) | Occupancy, % Replicate 2 (178 full-length kinases [14]) | Occupancy, % Replicate 1 (178 full-length kinases [15]; replicate 1) | Occupancy, % Replicate 2 (178 full-length kinases [15]; replicate 2) | Occupancy, % Replicate 1 (178 full-length kinases [16]) | Occupancy, % Replicate 1 (178 full-length kinases [17]) | Occupancy, % Replicate 2 (178 full-length kinases [17]) | Occupancy, % Replicate 1 (178 full-length kinases [18]) | Occupancy, % Replicate 2 (178 full-length kinases [18])
